Results from patent publication US20180116993A1, “MODULATORS OF FARNESOID X RECEPTOR AND METHODS FOR THE USE THEREOF” (XIAMEN UNIVERSITY, priority 2015, published 2018).
Where two headings read alike, the source gives them in different places. Marks after values point to notes of the source that are not given here.

Columns and labels:
full-length FXR = target: T1, full-length FXR (Homo sapiens, UniProt Q96RI1); test: Cell-based FXR transactivation, EcRE luciferase reporter in COS-7 cells; conditions: for fold induction at 5 µM / Cell-based FXR transactivation Fold changes by 5 μM compound: 5 μM compound; for fold induction at 5 µM / EC50: EcRE luciferase reporter; for Cell-based FXR transactivation Fold changes by 5 μM compound: positive: induction, minus: repression
T1 construct: The cells were co-transfected with plasmids encoding full-length FXR and the cognate luciferase reporter EcRE-Luc; expressed in transfected cells; host or cells: COS-7
T1 sequence (Q96RI1 1-486): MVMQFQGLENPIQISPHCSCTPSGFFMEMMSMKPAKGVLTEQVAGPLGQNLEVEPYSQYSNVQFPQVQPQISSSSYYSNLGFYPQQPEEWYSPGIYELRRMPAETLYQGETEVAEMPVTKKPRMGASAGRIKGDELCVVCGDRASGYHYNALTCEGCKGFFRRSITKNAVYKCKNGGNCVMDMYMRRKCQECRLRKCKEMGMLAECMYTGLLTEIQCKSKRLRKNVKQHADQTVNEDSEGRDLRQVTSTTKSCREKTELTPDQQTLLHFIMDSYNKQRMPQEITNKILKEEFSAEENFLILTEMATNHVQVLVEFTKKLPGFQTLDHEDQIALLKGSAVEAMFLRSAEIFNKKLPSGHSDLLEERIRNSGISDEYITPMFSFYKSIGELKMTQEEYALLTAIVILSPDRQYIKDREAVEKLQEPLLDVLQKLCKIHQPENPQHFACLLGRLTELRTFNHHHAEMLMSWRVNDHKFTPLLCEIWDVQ
Description: COS-7 cells were cotransfected with plasmids encoding full length FXR.
For transient transfection assay, COS-7 cells were maintained in DMEM containing 10% fetal bovine serum and were transiently transfected using Lipofectamine 2000 (Invitrogen). Before 24 h of transfection, 24-well plates were plated. The cells were co-transfected with plasmids encoding full-length FXR and the cognate luciferase reporter EcRE-Luc. Ligands were added 5 hours after transfection. Cells were harvested 24 hours later for the luciferase assays according to the manufacturer's instructions (Dual-Luciferase® Reporter Assay System, Promega). Luciferase activities were normalized to renilla activity co-transfected as an internal control.

[1] = target: T2, FXR ligand binding domain (LBD) (Homo sapiens, UniProt Q96RI1); test: AlphaScreen assay: FXR LBD recruitment of coregulator peptide motifs (SRC2-3, SRC1-2); type: biochemical
T2 construct: made in house
T2 sequence (Q96RI1 262-486 limits assumed): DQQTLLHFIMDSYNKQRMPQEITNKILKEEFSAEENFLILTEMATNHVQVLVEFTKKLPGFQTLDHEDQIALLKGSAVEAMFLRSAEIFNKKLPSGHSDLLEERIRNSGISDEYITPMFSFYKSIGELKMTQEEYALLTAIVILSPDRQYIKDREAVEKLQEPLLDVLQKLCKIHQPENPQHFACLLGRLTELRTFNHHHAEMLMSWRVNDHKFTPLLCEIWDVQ
Description: In search of novel ligands for FXR, we used FXR ligand binding domain (LBD) as a bait to screen chemical libraries based on AlphaScreen biochemical assay, which determines the efficacy of small molecules in influencing binding affinity of FXR with coregulator peptides (see e.g., Jin et al., (2013) Nature communications 4, 1937).
The binding of the cofactor peptide motifs to FXR ligand binding domain (LBD) in response to ligands was determined by AlphaScreen assays using a hexahistidine detection kit from Perkins-Elmer. The FXR LBD protein was purified as described previously (see e.g., Jin et al., (2013) Nature communications 4, 1937). The experiments were conducted with approximately 20-40 nM receptor LBD and 20 nM biotinylated cofactor peptides in the presence of 5 μg/ml donor and acceptor beads in a buffer containing 50 mM MOPS, 50 mM NaF, 0.05 mM CHAPS, and 0.1 mg/ml bovine serum albumin, all adjusted to a pH of 7.4.

[2] = test system: human colorectal adenocarcinoma HCT15 cells; test: MTT cell viability assay, HCT15; type: cell-based; conditions: 48 h, read-out: Cell viability as a percentage of the cells treated with DMSO, HCT15; for viability at 20 µM: HCT-15, 20 uM; for viability at 40 µM: HCT-15, 40 uM
From the text: (§1) The MTT assay is a colorimetric assay for assessing cell metabolic activity. It is widely used in high-throughput screening of antitumor drugs due to its high sensitivity and economical features. In this example, MTT was used to detect the inhibitory effects of compounds on various cancer cell lines. Cancer cells including human colorectal adenocarcinoma HCT15 cells, RA-resistant human colon cancer HCT116 cells, human cervical carcinoma Hela cells, human hepatoma HepG2 cells and human breast cancer MCF7 cells were cultured in DMEM medium containing 10% fetal bovine serum. 20 uM or 40 uM of compounds were administered to treat cells, cell viability is detected by MTT assay and expressed as a percentage of the cells treated with DMSO (Table 4).

[3] = test system: human breast cancer MCF7 cells; test: MTT cell viability assay, MCF-7; type: cell-based; conditions: 48 h, read-out: Cell viability as a percentage of the cells treated with DMSO, MCF-7
From the text: as §1

[4] = test system: RA-resistant human colon cancer HCT116 cells; test: MTT cell viability assay, HCT116; type: cell-based; conditions: 48 h, read-out: Cell viability as a percentage of the cells treated with DMSO, HCT116; for viability at 20 µM: HCT-116, 20 uM; for viability at 40 µM: HCT-116, 40 uM
From the text: as §1

db/db mice = test: Hepatic triglyceride, liver histology, serum ALT and ALP in high-fat diet fed db/db mice; type: in vivo, mouse; conditions: for Serum ALP (U/L): vehicle 129 ± 15
Description: Liver tissues fixed in 4% paraformaldehyde in example 5 were performed for H&E staining by standard procedures. Liver tissues fixed in 4% paraformaldehyde were embedded in optimum cutting temperature compound (OCT), and cryosectioned. Frozen liver sections were stained with 0.3% oil red O according to standard procedures.
The triglyceride levels in liver tissues from mice treated with compounds were analyzed using Tissue triglyceride assay kit (Applygen, Beijing, China).
Alkaline Phosphatase (ALP) is a marker of cholestasis. Cholestasis can be suspected when there is an elevation of ALP enzymes. In fact, greater than 90% of patients with bile stasis will have an elevated alkaline phosphatase. […] The aminotransferase is used to evaluate the presence of hepatitis and may be elevated in cholestasis or with common bile duct obstruction. In this example, 8-10 week age db/db mice were fed with high-fat diet and treated with 10 mg/kg of compounds once daily for 10 days as in Example 5. The activities of serum ALP and ALT were analyzed using ALP kit and ALT kit, respectively (Nanjing Jiancheng Engineering Institute, China).

[5] = test system: human hepatoma HepG2 cells; test: MTT cell viability assay, HepG2; type: cell-based; conditions: 48 h, read-out: Cell viability as a percentage of the cells treated with DMSO, HepG2
From the text: as §1

[6] = test system: human cervical carcinoma Hela cells; test: MTT cell viability assay, Hela; type: cell-based; conditions: 48 h, read-out: Cell viability as a percentage of the cells treated with DMSO, Hela
From the text: as §1

[7] = SRC1-2 peptide, Table 1, read-out: EC50 (μM) of FXR binding by AlphaScreen assay recruit SRC1-2
[8] = SRC2-3 peptide, Table 1, read-out: EC50 (μM) of FXR binding by AlphaScreen assay recruit SRC2-3
[9] = 10 mg/kg once daily for 10 days
[10] = 10 mg/kg once daily for 10 days, vehicle 377 ± 48, Table 17
[11] = SRC1-2 peptide, Table 2, read-out: EC50 (μM) of FXR binding by AlphaScreen assay recruit SRC1-2
[12] = SRC2-3 peptide, Table 2, read-out: EC50 (μM) of FXR binding by AlphaScreen assay recruit SRC2-3

Row | Compound | Cell-based FXR transactivation Fold changes by 5 μM compound (full-length FXR; Table 2) | EC50 (full-length FXR; Table 2) | EC50 [1, 11] | EC50 [1, 12] | viability at 20 µM [2] | viability at 40 µM [2] | viability at 20 µM [3] | viability at 40 µM [3] | viability at 20 µM [4] | viability at 40 µM [4] | viability at 20 µM [5] | viability at 40 µM [5] | viability at 20 µM [6] | viability at 40 µM [6] | other results
1 | Nc1cccc(C(=O)OCC23CC4CC(CC(C4)C2)C3)c1 [Tricyclo-[3.3.1.1^3,7]decane-1-methanol, 1-(3-aminobenzoate)] | – | – | – | – | – | – | – | – | – | – | – | – | – | – | fold induction at 5 µM (full-length FXR; Table 1): > 10; EC50 (full-length FXR; Table 1): < 1000 nM; EC50 [1, 7]: < 1 µM; EC50 [1, 8]: < 1 µM
2 | O=C(Oc1ccc(O)cc1)C12CC3CC(CC(C3)C1)C2 [Tricyclo-[3.3.1.1^3,7]decane-1-carboxylic acid, 4-hydroxy-phenyl ester] | – | – | – | – | – | – | – | – | – | – | – | – | – | – | fold induction at 5 µM (full-length FXR; Table 1): > 10; EC50 (full-length FXR; Table 1): < 1000 nM; EC50 [1, 7]: < 1 µM; EC50 [1, 8]: < 1 µM
3 | COc1ccc(OC(=O)C23CC4CC(CC(Cl)(C4)C2)C3)cc1 [Tricyclo-[3.3.1.1^3,7]decane-1-carboxylic acid, 3-chloro-, 4-methoxyphenyl ester] | – | – | – | – | – | – | – | – | – | – | – | – | – | – | fold induction at 5 µM (full-length FXR; Table 1): > 10; EC50 (full-length FXR; Table 1): < 1000 nM; EC50 [1, 7]: < 1 µM; EC50 [1, 8]: < 1 µM
4 | CC1(C)C2CCC1(C)C(OC(=O)c1ccc([N+](=O)[O-])cc1)C2 (stereo not shown) [XD-14, 1,7,7-trimethyl-bicyclo[2.2.1]-heptan-2-yl 4-nitrobenzoate] | 3 | 1000 to 10000 nM | – | – | 64 ± 4% | 58 ± 4% | 91 ± 7% | 84 ± 2% | 60 ± 3% | 42 ± 3% | 83% | 77 ± 1% | 90 ± 1% | 80 ± 5% | Serum ALP (U/L) (db/db mice; [9]): 86 ± 20^a U/L; Serum ALT (U/L) (db/db mice; [10]): 62 ± 11^c U/L
5 | COc1cc(C(=O)OC2CC3CCC2(C)C3(C)C)ccc1F (stereo not shown) [XD-3, 1,7,7-trimethyl-bicyclo[2.2.1]-heptan-2-yl 4-fluoro-3-methoxybenzoate] | 5 | 1000 to 10000 nM | 1 to 10 µM | 1 to 10 µM | 73 ± 5% | 40 ± 1% | 100 ± 4% | 40% | 80 ± 4% | 41 ± 4% | 100 ± 3% | 70 ± 3% | 100 ± 1% | 66 ± 3% | Hepatic triglyceride (mM/g) (db/db mice; 10 mg/kg for 10 days, vehicle 148 ± 14): 80 ± 19 ^a mM/g; Serum ALT (U/L) (db/db mice; 10 mg/kg for 10 days, vehicle 377 ± 48, Table 15): 185 ± 29 ^a U/L
6 | Cc1cc(C(=O)OC2CC3CCC2(C)C3(C)C)ccc1F (stereo not shown) [XD-1, 1,7,7-trimethyl-bicyclo[2.2.1]-heptan-2-yl 4-fluoro-3-methylbenzoate] | 5 | 1000 to 10000 nM | 1 to 10 µM | 1 to 10 µM | 93 ± 2% | 42 ± 3% | 100 ± 2% | 65% | 96 ± 2% | 62 ± 3% | 100 ± 2% | 62 ± 7% | 100 ± 5% | 70 ± 3% | –

Further lines, with some results ahead:

Row | Cell-based FXR transactivation Fold changes by 5 μM compound (full-length FXR; Table 2) | EC50 (full-length FXR; Table 2) | EC50 [1, 11] | EC50 [1, 12] | Compound | viability at 20 µM [2] | viability at 40 µM [2] | viability at 20 µM [3] | viability at 40 µM [3] | viability at 20 µM [4] | viability at 40 µM [4] | viability at 20 µM [5] | viability at 40 µM [5] | viability at 20 µM [6] | viability at 40 µM [6] | other results
7 | 1.5 | – | – | – | CC1(C)C2CCC1(C)C(OC(=O)C1CCC(N)CC1)C2 (stereo not shown) [XD-21, 1,7,7-trimethyl-bicyclo[2.2.1]-heptan-2-yl 4-aminocyclo-hexane-carboxylate] | – | – | – | – | – | – | – | – | – | – | –
8 | 1.5 | – | – | – | O=C(OC1CCCCCCC1)C1CCC(O)CC1 (stereo not shown) [XD-19, cyclooctyl 4-hydroxy-cyclohexane-carboxylate] | – | – | – | – | – | – | – | – | – | – | –
9 | 2 | 1000 to 10000 nM | < 1 µM | < 1 µM | Cc1cc(C(=O)OC2CCC3CCCCC3C2)ccc1F (stereo not shown) [XD-34, decahydro-naphthalen-2-yl 4-fluoro-3-methylbenzoate] | 100 ± 6% | 100 ± 6% | 100 ± 6% | 99 ± 6% | 98 ± 6% | 94 ± 6% | 100 ± 6% | 88 ± 6% | 98 ± 6% | 97 ± 6% | Serum ALP (U/L) (db/db mice; [9]): 91 ± 18^a U/L; Serum ALT (U/L) (db/db mice; [10]): 73 ± 20^b U/L
10 | 3 | > 1000 nM | 1 to 10 µM | 1 to 10 µM | Nc1ccc(C(=O)OC2CC3CCC2C3)cc1 (stereo not shown) [XD-22, bicyclo[2.2.1]-heptan-2-yl 4-aminobenzoate] | 100 ± 4% | 100 ± 4% | 100 ± 2% | 100 ± 1% | 89 ± 1% | 65 ± 4% | 100 ± 3% | 100 ± 8% | 100 ± 2% | 100 ± 4% | –
11 | −2 | < 1000 nM | – | – | O=C(OC1CCC2CCCCC2C1)c1ccc([N+](=O)[O-])cc1 (stereo not shown) [XD-26, decahydro-naphthalen-2-yl 4-nitrobenzoate] | 86 ± 2% | 56 ± 2% | 100 ± 2% | 92 ± 2% | 100 ± 2% | 92 ± 2% | 100 ± 2% | 100 ± 2% | 87% | 70 ± 2% | –
